Laboratory results taken from US12138252B2, “Multikinase inhibitors of VEGF and TGF beta and uses thereof” (AIVIVA BIOPHARMA, INC., priority 2017, dated 2024).

Assays:
rabbit ear wound = experiment: Histopathology of rabbit ear wound (neovascularization, fibrosis, re-epithelialization); format: in vivo, New Zealand white rabbits; design: key to Total Score: aggregated total of severity grades for microscopic findings; key to Neovascularization / Re-epithelialization: five-step severity grade (minimal, mild, moderate, marked, severe); settings: intradermal 1%; for average total score of test wounds lower than untreated wounds by: difference to untreated control; for Total Score / Fibrosis/Collagen / Neovascularization / Re-epithelialization: treated mean, Day 43; for Total Score: aggregation of microscopic findings; for Fibrosis/Collagen / Neovascularization / Re-epithelialization: histology severity grade; for angiogenesis / neovascularization compared with untreated wounds (words) / fibrosis compared with untreated wounds (words): histopathology; for scar formation compared with control sites: overall
Experimental: (§1) The objective of this study was to examine the effect of test compounds on wound healing and TGF beta expression after dermal injury in a rabbit ear hypertrophic scar model.
(§2) In New Zealand white rabbits, maintained under a surgical plane of anesthesia, trauma stimulation of the skin on the ventral surface of both ears is initiated on Day 1. Trauma sites are evaluated on Days 8, 15, 22, 29, 36, and 43. On days 15 and 29, each site is dosed with test compounds (e.g., 1% w/w, 100 μl) by intradermal or intralesional injections.
At necropsy, each treatment site was harvested and preserved for hematoxylin and […] and Mason's trichrome stainings. Each lesion was examined histologically and graded for neovascularization, fibrosis and re-epithelialization using a five-step/severity grading system (minimal, mild, moderate, marked, and severe). The average total score is an aggregation of these microscopic findings relating to an inflammatory response.

[1] = tested on: LL37-induced inflammation; experiment: LL37-induced dermal inflammation model in mice, histopathology and CD4/CD8 immunostaining; format: in vivo; settings: intradermal LL37 induction, single intradermal injection 1.6 mg, FIG. 2
Experimental: (§3) In our study, mice were injected subcutaneously with 40 μL of LL-37 (3.3 mg/mL) to induce inflammatory reactions. Immediately following the LL-37 injection, axitinib, nintedanib, and lenvatinib were individually administered as a single intradermal injection (1.6 mg). LL-37 injection was repeated every 12 hours for a total of 4 injections. Endotoxin-free water and dexamethasone (3 mg/kg by intraperitoneal injection, twice), respectively, were used as negative and positive control groups.
At 48 hours after the initial LL-37 injection, the dorsal skin was photographed, and the severity of skin lesions were scored for redness and measured for areas of involvement.
(§4) Mice were then anaesthetized, and tissue samples of lesion sites were excised and fixed for H&E stainings and immunohistochemical analysis. Markers for inflammation (CD4 and CD8) were determined using specific antibodies. TGF beta levels are measured by mRNA expression using qPCR.
The tissue samples were analyzed for inflammation characteristics. Histopathology endpoints included inflammation, and CD4+ and CD8+ T-lymphocyte immunostaining. For inflammation scores, tissues were examined histologically and scored for inflammatory cell infiltrate.

TGF-beta 1 = experiment: Dermal TGFb1 levels (ELISA) after linear incisional wound in minipigs; format: in vivo, Gottingen Minipigs; settings: minipig incisional wound, approximately 16 mg intradermal once, biopsies days 4, 7, 9, ELISA, FIG. 5
From the text: The purpose of this study was to evaluate the topical effects of axitinib, nintedanib, sorafenib and lenvatinib when administered via intradermal injection to the dorsal skin along linear incisions of minipigs. Linear incisional wound was made to elicit inflammatory and wound healing process in the skin. After dosing, animals were observed postdose for 9 days to assess the levels of TGFb1 expressions in the skin.
Three male Gottingen Minipigs® dosed once via intradermal injection along the edges of each of the linear incision wound sites for each animal (wounds on the dorsum, perpendicular to the spine, approximately 3 cm in length and 3 cm distance from the spine). Each incisional wound received approximately 16 mg of the test compound intradermally once along both sides of the linear wound.
On days of 4, 7, and 9 post-dosing, one 4 mm dermal punch biopsy was collected for each incisional wound and processed for TGF-beta 1 analysis with ELISA, using a commercial kit (e.g., the kit from Thermo Fisher or other vendors).

TGFb1 mRNA = TGFb1 mRNA expression (qPCR) in skin of mice after LL-37 challenge; format: in vivo; settings: LL37 induced, single intradermal injection 1.6 mg, FIG. 1
Experimental: as §3, §4

TGF beta1 mRNA = TGF beta1 mRNA expression (qRT-PCR) in rabbit ear hypertrophic scar model; format: in vivo, New Zealand white rabbits; settings: 1% w/w 100 μl intradermal on days 15 and 29, Day 43, FIG. 6
Experimental: as §1, §2
Animals are euthanized on Day 43, and the trauma sites are harvested and frozen for TGF beta analysis using quantitative RT-PCR (qRT-PCR) (e.g., A. K. Johnson et al., Dev. Comp. Immunol., 2006; 30(5): 473-84). TGF beta1 mRNA expression levels in treated trauma samples are compared to the expression level in the untreated trauma sample.

Row | Structure (SMILES) | average total score of test wounds lower than untreated wounds by (rabbit ear wound) | Total Score (rabbit ear wound) | Fibrosis/Collagen (rabbit ear wound) | Neovascularization (rabbit ear wound) | Re-epithelialization (rabbit ear wound) | inflammation score (inflammatory cell infiltrate) [1] | suppression of TGF beta 1 expression in skin (TGF-beta 1) | TGFb1 mRNA expression relative to LL37 alone (without treatment) (TGFb1 mRNA; 48 hours) [%] | TGFb-1 mRNA expression among all treatment groups (TGFb1 mRNA) | mean folds of TGF beta mRNA expression vs untreated wound sample (TGF beta1 mRNA) | angiogenesis / neovascularization compared with untreated wounds (words) (rabbit ear wound) | fibrosis compared with untreated wounds (words) (rabbit ear wound) | angiogenesis / neovascularization compared with untreated wounds (words) (rabbit ear wound; listed as Nintedanib) | fibrosis compared with untreated wounds (words) (rabbit ear wound; listed as Nintedanib) | scar formation compared with control sites (rabbit ear wound) | angiogenesis / neovascularization compared with untreated wounds (words) (rabbit ear wound; listed as Sorafenib)
1 | CNC(=O)c1ccccc1Sc1ccc2c(/C=C/c3ccccn3)n[nH]c2c1 [axitinib] | 1.4 | 4.6 | 3.3 | 1 | 0.3 | – | – | – | – | – | – | – | – | – | – | –
2 | COc1cc2nccc(Oc3ccc(NC(=O)NC4CC4)c(Cl)c3)c2cc1C(N)=O [lenvatinib] | – | – | – | – | – | prominent reductions | very effective | 79 | lowest TGFb-1 mRNA expression | lower than the expression level in the untreated wound sample | – | – | – | – | – | –
3 | COC(=O)c1ccc2c(c1)NC(=O)/C2=C(\Nc1ccc(N(C)C(=O)CN2CCN(C)CC2)cc1)c1ccccc1 [nintedanib] | 1.5 | 4.5 | 3 | 1 | 0.5 | prominent reductions | very effective | – | – | lower than the expression level in the untreated wound sample | decreased angiogenesis | decreased angiogenesis and fibrosis | much less neovascularization | about the same fibrosis | less scar formation | –
4 | CNC(=O)c1cc(Oc2ccc(NC(=O)Nc3ccc(Cl)c(C(F)(F)F)c3)cc2)ccn1 [sorafenib] | – | 5.8 | 2.5 | 3 | 0.3 | – | not as effective | – | – | lower than the expression level in the untreated wound sample | do not show any reduction in angiogenesis | similar, or increased fibrosis | – | – | does not appear to have reduced scar formation | slightly increased neovascularization
